Laboratory results published in ChEMBL document CHEMBL1126478, “The syntheses and binding affinities of tools for the study of angiotensin AT2 receptors” (Bioorg Med Chem Lett, 1993).
Active and inactive are the calls of the source.

Columns and labels:
[1] = target: T1, Type-2 angiotensin II receptor (Homo sapiens, UniProt P50052); experiment: The compound was evaluated for the inhibition of binding of [125I]-CGP 42112A to AT2 receptor
T1 sequence (P50052 whole entry): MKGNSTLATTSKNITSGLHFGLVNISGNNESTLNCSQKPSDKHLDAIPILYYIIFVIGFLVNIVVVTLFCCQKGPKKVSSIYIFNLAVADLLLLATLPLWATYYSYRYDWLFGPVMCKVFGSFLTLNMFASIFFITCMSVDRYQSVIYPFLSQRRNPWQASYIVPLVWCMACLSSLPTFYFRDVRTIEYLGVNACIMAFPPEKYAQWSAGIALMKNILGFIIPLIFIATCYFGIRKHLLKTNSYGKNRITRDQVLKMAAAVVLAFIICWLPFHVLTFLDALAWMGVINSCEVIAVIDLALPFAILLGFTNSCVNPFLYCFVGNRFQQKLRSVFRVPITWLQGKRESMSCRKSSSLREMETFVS

[2] = target: T2, Type-1 angiotensin II receptor (Homo sapiens) (UniProt P30556); experiment: The compound was evaluated for the inhibition of binding of [3H]-DUP 753 to AT1 receptor at 0.1 uM; not active (</= 10% Inhibition)
T2 sequence (whole entry): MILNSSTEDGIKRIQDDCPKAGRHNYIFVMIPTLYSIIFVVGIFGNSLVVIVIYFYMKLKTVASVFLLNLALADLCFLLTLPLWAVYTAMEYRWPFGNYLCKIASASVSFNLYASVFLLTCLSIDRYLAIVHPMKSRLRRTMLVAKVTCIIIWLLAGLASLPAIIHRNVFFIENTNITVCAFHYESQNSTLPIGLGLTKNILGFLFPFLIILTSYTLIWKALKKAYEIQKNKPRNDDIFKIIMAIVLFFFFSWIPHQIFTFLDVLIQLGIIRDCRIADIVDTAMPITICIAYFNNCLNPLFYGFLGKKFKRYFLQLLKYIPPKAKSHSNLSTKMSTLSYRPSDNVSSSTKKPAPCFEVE

[3] = target: T2, Type-1 angiotensin II receptor (Homo sapiens); experiment: The compound was evaluated for the inhibition of binding of [3H]-DUP 753 to AT1 receptor at 1 uM; not active (</= 10% Inhibition)

Structure (SMILES) | IC50 [1] [nM] | inhibition [2] | inhibition [3]
Cc1cc(Cn2cnc3c2C[C@@H](C(=O)O)N(C(=O)C(c2ccccc2)c2ccccc2)C3)ccc1NCCCCCCNC(=O)[C@@H](N)CCCCNC(=O)CCCC[C@@H]1SC[C@@H]2NC(=O)N[C@@H]21 | 7 | inactive | –
Cc1cc(Cn2cnc3c2C[C@@H](C(=O)O)N(C(=O)C(c2ccccc2)c2ccccc2)C3)ccc1NCCCCCCNC(=O)CCNc1ccc([N+](=O)[O-])c2nonc12 | 3.6 | – | inactive
Cc1cc(Cn2cnc3c2C[C@@H](C(=O)O)N(C(=O)C(c2ccccc2)c2ccccc2)C3)cc(I)c1O | 5.1 | inactive | –
Cc1cc(Cn2cnc3c2C[C@@H](C(=O)O)N(C(=O)C(c2ccccc2)c2ccccc2)C3)ccc1N(C)C | – | inactive | –
